Source: PubChem BioAssay AID2060336 (Molecular Pharmacology Branch, DTP, NCI, 2025)

Test system: 958767-090-R-J1-PDC spheroid growth
Test: Anticancer human tumor 958767-090-R-J1-PDC patient-derived head and neck squamous carcinoma cell line growth inhibition [IpAb]
Details: spheroids with HUVEC and MSC; for IC50: curve of first compound; for viability, T/C: stronger effect = lower value
In short: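 Combinations with ipatasertib or abemaciclib were tested on tumour spheroids holding HUVEC (25%) and MSC (15%) alongside 60% malignant cells. Top concentration was at or near clinical Cmax (10 microM if undefined), descending in half-log steps.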
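Note: spheroids exposed to agents for 7 days.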
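Throughout, for viability, T/C: 100% = DMSO vehicle control wells.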

## CC(C)(C)c1cnc(CSc2cnc(NC(=O)C3CCNCC3)s2)o1 + CC(C)NCC(C(=O)N1CCN(c2ncnc3c2C(C)CC3O)CC1)c1ccc(Cl)cc1
Second compound 0.1 µM
  IC50: 119 nM
Second compound 0.316 µM
  IC50: 115 nM
Second compound 1 µM
  IC50: 95.7 nM
Second compound 3.16 µM
  IC50: 101 nM
Second compound 10 µM
  IC50: 41 nM
Second compound 0.1 µM, first compound 0.00949 µM
  viability, T/C: 98.5%
Second compound 0.1 µM, first compound 0.03 µM
  viability, T/C: 95.1%
Second compound 0.1 µM, first compound 0.0949 µM
  viability, T/C: 61.2%
Second compound 0.1 µM, first compound 0.3 µM
  viability, T/C: 3.88%
Second compound 0.1 µM, first compound 0.949 µM
  viability, T/C: 2.72%
Second compound 0.1 µM, first compound 3 µM
  viability, T/C: 2.41%
Second compound 0.316 µM, first compound 0.00949 µM
  viability, T/C: 80.6%
Second compound 0.316 µM, first compound 0.03 µM
  viability, T/C: 82.5%
Second compound 0.316 µM, first compound 0.0949 µM
  viability, T/C: 59.5%
Second compound 0.316 µM, first compound 0.3 µM
  viability, T/C: 2.24%
Second compound 0.316 µM, first compound 0.949 µM
  viability, T/C: 2.31%
Second compound 0.316 µM, first compound 3 µM
  viability, T/C: 2.18%
Second compound 1 µM, first compound 0.00949 µM
  viability, T/C: 72%
Second compound 1 µM, first compound 0.03 µM
  viability, T/C: 68%
Second compound 1 µM, first compound 0.0949 µM
  viability, T/C: 50.4%
Second compound 1 µM, first compound 0.3 µM
  viability, T/C: 1.77%
Second compound 1 µM, first compound 0.949 µM
  viability, T/C: 1.65%
Second compound 1 µM, first compound 3 µM
  viability, T/C: 2.3%
Second compound 3.16 µM, first compound 0.00949 µM
  viability, T/C: 63.6%
Second compound 3.16 µM, first compound 0.03 µM
  viability, T/C: 62.9%
Second compound 3.16 µM, first compound 0.0949 µM
  viability, T/C: 52.6%
Second compound 3.16 µM, first compound 0.3 µM
  viability, T/C: 1.26%
Second compound 3.16 µM, first compound 0.949 µM
  viability, T/C: 1.8%
Second compound 3.16 µM, first compound 3 µM
  viability, T/C: 1.85%
Second compound 10 µM, first compound 0.00949 µM
  viability, T/C: 52.6%
Second compound 10 µM, first compound 0.03 µM
  viability, T/C: 68.9%
Second compound 10 µM, first compound 0.0949 µM
  viability, T/C: 21.1%
Second compound 10 µM, first compound 0.3 µM
  viability, T/C: 1.62%
Second compound 10 µM, first compound 0.949 µM
  viability, T/C: 1.38%
Second compound 10 µM, first compound 3 µM
  viability, T/C: 1.87%
